{
  "source": "patent US10471054B2",
  "about": "“CDK1 inhibitors of acetyl chrysin mannich base derivatives, synthesis and use thereof” (priority 2016, dated 2019)",
  "key": {"log P in Octanol/Water": {"assay": "log P in Octanol/Water", "assay_type": "physicochemical", "conditions": "Octanol/Water at 37° C.", "method": "The solubility and log P of acetyl ChrysinMannich base derivatives see TABLE 1.\nCH-j is pKa 5.3, log P 1.63 in Octanol/Water at 37° C. […] (BA-j 77m/ml). CH-j belongs to BCS II (low solubility, high permeability) and solubility presents the pH dependence. […] CH-j is a pH dependent fast release. […] It is speculated that CH-j has more appropriate log P and solubility with more likely entering tissue cells than others solubility acetyl Chrysin Mannich base derivatives.\n(about 20 times BA-f 277 μg/ml) and 564 μg/ml in water at 37° C. (about 1000 times BA-f 0.53m/ml). CH-f is BCS I (high solubility and permeability) and solubility presents the pH dependence. It is speculated that CH-f has more appropriate log P and solubility with entering systemic (blood system and tissue cells) than others solubility acetyl Chrysin Mannich base derivatives."}, "BGC-823 and Hep G2": {"test_system": "BGC-823 and Hep G2", "assay": "H2O2 level in cancer cells, PF1-H2O2 fluorescent probe", "assay_type": "cell-based", "conditions": "BGC-823 and Hep G2, CH-j 5-10 μM", "method": "(§1) The cells are cancer cells (MCF-7, GBC-823, Hep G2) and normal cells (Liver, COS-7, PBMCs). According to the literature [Scientific Reports, 2015, 5: 13626; Anti-cancer Agents in Medicinal Chemistry, 2016, 16: 914-924.], in vitro cultured cells was given to CH-j 25 μM for 3.5 h, added PF1-H2O2 selective fluorescence probe 10 μM for 0.5 h and detected the concentration of H2O2 in cells, and performed fluorescence imaging by results shown in FIG. 1.\nFIG. 1-2: The effect of CH-j/BA-j to Hep G2 and BGC-382 in the levels of H2O2: in which the X-coordinate is the concentration of CH-j/BA-j concentration (μM), and Y-coordinate is the intracellular levels of H2O2 (μM) for 4 h with PF1-H2O2 10 μM by Fluorescence Microplater Reader (488 nm/525 nm)."}, "[1]": {"test_system": "PBMCs, activated lymphocytes, human normal Liver cells", "assay": "H2O2 level in blood and normal cells, PF1-H2O2 fluorescent probe", "assay_type": "cell-based", "conditions": "CH-j: PBMCs and activated lymphocytes; BA-j: activated lymphocyte", "method": "as §1\nFIG. 1-3, FIG. 1-4, The fluorescence imaging by PF1-H2O2 10 μM is that CH-j […] for 4 h affected the level of H2O2 in MCF-7, GBC-823, Hep G2 and Liver.\nFIG. 1-3: CH-j/BA-j affects the levels of H2O2 in blood cells, X-coordinate is the concentration of CH-j/BA-j concentration (μM), and Y-coordinate the intracellular levels of H2O2 (μM) for 4 h with PF1-H2O2 10 μM by Fluorescence Microplater Reader (488 nm/525 nm)."}, "[2]": {"test_system": "5 cancers cells (MCF-7, H-460, BGC-823, PC-3, Hep G2)", "assay": "Anti-cancer cells proliferation activity, average of 5 cancer cells", "assay_type": "cell-based", "conditions": "for IC50: average of 5 cancer cells", "source_text": "Anti-cancer cells proliferationactivity of in vitro CH-j and CH-f were shown in TABLE 2 for the results of the screening of 5 cancers cells."}, "[3]": {"assay": "Protein binding rate and reversible binding rate", "assay_type": "in vitro ADME", "conditions": "plasma proteins", "method": "(§2) The combination of drugs and plasma proteins is usually reversible, and the affinity strength is determined by the reversible binding rate of the drug-protein complex. Only free drugs can spread to the tissue through the lipid membrane. By modifying the structure of the drug, the effect of the drug on the target site can be improved by improving the reversible binding rate of the drug-protein complex.\n(§3) The acidic part of polyphenol hydroxyl group is combined with lysine alkaline site in albumin structure. The protein binding rate and reversible binding rate of CH-j see TABLE 2."}, "plasma proteins": {"test_system": "plasma proteins", "assay": "Protein binding rate and reversible binding rate", "assay_type": "in vitro ADME", "method": "as §2, §3"}, "[4]": {"assay": "Pharmacokinetics by oral in monkey (urine drug concentration-time curve)", "assay_type": "in vivo", "conditions": "for Tmax: po", "method": "Chromatographic conditions and the system applies: with C18 chromatographic column (acid the tall secretory effect, 5 μm, 4.6*150 mm), in acetonitrile-methanol-water-mesylate (25:20:55:0.15) as mobile phase, detection UV 283 nm, the velocity 1 ml/min, and the sample volume 20 μl. The theoretical plate number is not less than 2000 according to CH-j peak.\nSample solution: after the macaques were drugged, the catheter was inserted. The urine by oral CH-j 5 mg/kg is collected, added the methanol at 1:4 (v:v), centrifuge and remove the liquid to measure. Control solution is CH-j methanol solution 5 μg/ml. The log P of CH-j is larger, the fat solubility strong, and absorption distribution in the body very rapid, the urine drug concentration-time curve consistent with the typical two-compartment model. Tmax1, 1.3 h, Cmax1 is […]. […] The apparent distribution volume (Vd) 42 L, mainly distributed in body fluid (BA-j Vd 12.6 L, mainly distributed in blood. See Fitoterapia, 2015, 107: 36-34)\nFIG. 5: The concentration of urine drug concentration-time curve in monkey (n=6) by CH-j oral 5 mg/kg, X-coordinate is oral CH-j time (h) and Y-coordinate is the concentration of CH-j (μM)."}, "H-460 xenograft": {"test_system": "H-460 xenograft", "assay": "H-460 xenograft in BALB/c nude mouse", "assay_type": "in vivo", "conditions": "compared with before", "method": "The anti-tumor effect of the BALB/c nude mouse model of the non-small cell lung cancer (H-460) was determined by the method [Scientific Reports, 2015, 5: 13626], and the results were shown in FIG. 7. 5 or 10 mg/kg of CH-j, for twice daily 10 days were compared with the control group.\nFIG. 7: H-460 carcinoma in male BALB/c nude mice xenograft model, two times a day to fill the stomach to CH-j 5 and 10 mg/kg, for 10 days in a row, X-coordinate is experimental time (days), and Y-coordinate vertical volume of H-460 carcinoma (mm^3)."}, "[5]": {"conditions": "oral 5 mg/kg, monkey, urine drug concentration"}, "[6]": {"conditions": "oral, monkey (n = 6), 3 mg/kg in Table 4, 5 mg/kg in text"}},
  "note": "Read-outs that look alike come from different tables or passages of the source.",
  "data": [
    {"molecule": "CC(=O)c1c(O)c(CN2CCC(O)CC2)c2oc(-c3ccccc3)cc(=O)c2c1O", "note": "[CH-j, 6-Acetyl-5,7-dihydroxy-8-(4-hydroxy-piperidin-1-ylmethyl)-2-phenyl-chromen-4-one]", "values": [
      {"measurement": "log P", "setting": "log P in Octanol/Water", "result": 1.64},
      {"measurement": "logP", "setting": "log P in Octanol/Water; octanol/water", "result": 1.63},
      {"measurement": "Amount of H2O2 released, fold", "setting": "BGC-823 and Hep G2", "result": "about 4 times"},
      {"measurement": "Maximum level of H2O2 in cells", "setting": "BGC-823 and Hep G2; 4 h", "result": "35 to 45", "unit": "µM"},
      {"measurement": "Dose dependence of H2O2 level", "setting": "[1]", "result": "no significant dose-dependent manner"},
      {"measurement": "Anti-proliferative activity, times stronger than BA-j", "setting": "[2]", "result": 2, "unit": "times"},
      {"measurement": "Anti-proliferative activity, times stronger than Chrysin", "setting": "[2]", "result": 5, "unit": "times"},
      {"measurement": "IC50", "setting": "[2]", "result": 2.6, "unit": "µg/mL"},
      {"measurement": "IC50", "setting": "[2]; MTT, 48 h", "result": 6.3, "unit": "µM"},
      {"measurement": "fraction unbound", "setting": "[3]; average of 3 concentrations, read-out: Protein binding rate AV (converted)", "result": 0.14},
      {"measurement": "fraction unbound at 12.5 μg/ml", "setting": "[3]; drug concentration 12.5 μg/ml", "result": 0.114},
      {"measurement": "fraction unbound at 25 μg/ml", "setting": "[3]; drug concentration 25 μg/ml", "result": 0.156},
      {"measurement": "fraction unbound at 50 μg/ml", "setting": "[3]; drug concentration 50 μg/ml", "result": 0.151},
      {"measurement": "Reversie binding rate AV", "setting": "plasma proteins; average of 3 concentrations", "result": 90.0, "unit": "%"},
      {"measurement": "Reversie binding rate", "setting": "plasma proteins; drug concentration 12.5 μg/ml", "result": 90.3, "unit": "%"},
      {"measurement": "Reversie binding rate", "setting": "plasma proteins; drug concentration 25 μg/ml", "result": 89.6, "unit": "%"},
      {"measurement": "Reversie binding rate", "setting": "plasma proteins; drug concentration 50 μg/ml", "result": 90.1, "unit": "%"},
      {"measurement": "Maximum drug concentration, times higher than Chrysin", "setting": "[4]; monkey, in vivo", "result": "about 40 times"},
      {"measurement": "Cmax1", "setting": "[4]; [5]", "result": 26.4, "unit": "µM"},
      {"measurement": "Cmax2, redistributive period", "setting": "[4]; [5]", "result": 13.2, "unit": "µM"},
      {"measurement": "V d", "setting": "[4]; [6]", "result": 42, "unit": "L"},
      {"measurement": "t1/2β", "setting": "[4]; [6]", "result": 6.2, "unit": "h"},
      {"measurement": "Tmax", "setting": "[4]; rhesus, monkey, urine, monkey (n = 6), 3 mg/kg in Table 4, 5 mg/kg in text, read-out: T max (Tmax1)", "result": 1.3, "unit": "h"},
      {"measurement": "Tmax", "setting": "[4]; rhesus, monkey, urine, monkey (n = 6), 3 mg/kg in Table 4, 5 mg/kg in text, read-out: T max, redistributive period (Tmax2)", "result": 9, "unit": "h"},
      {"measurement": "concentration at 24 h", "setting": "[4]; rhesus, urine, oral 5 mg/kg, monkey", "result": "< 3000", "unit": "nM"},
      {"measurement": "Cmax", "setting": "[4]; rhesus, urine, oral, monkey (n = 6), 3 mg/kg in Table 4, 5 mg/kg in text", "result": 26.4, "unit": "µM"},
      {"measurement": "Reduction rate of H-460 tumor", "setting": "H-460 xenograft; 5 mg/kg twice daily 10 days", "result": "90.5%±9.2%"},
      {"measurement": "Reduction rate of H-460 tumor", "setting": "H-460 xenograft; 10 mg/kg twice daily 10 days", "result": "95.2%±11.6%"}
    ]}
  ]
}
